Key:
H460 cells [1] = test: Apoptosis detection (Annexin V / PI); assay type: cell-based, human; details: 100 nmol/L, 48 h
Description: H460 cells with a cell density of more than 90% in 10 cm^2 dishes were plated in 12-well plates according to the cell growth rate, and transfected after 12 h, and the groups were divided as follows: • blank control group (4 wells): 200 uL of opti-MEM per well • negative control group (NC group) and experimental group (3 wells each): the system in each well was as follows • A. 100 uL of opti-MEM and 2 uL of iMax were mixed well for 5 min • B. 100 uL of opti-MEM and 5 uL of small RNA (final concentration 100 nmol/L) were mixed well • C. solution A and solution B were mixed well and let stand for 15 min, and then was added to each well at a 200 uL system • Note: 100 uL of nuclease-free water was added to 2 nmol of small RNA dry powder for dissolution at a storage concentration of 20 umol/L
The supernatant and cells were collected after 48 h and washed twice with pre-chilled PBS. The 4 tubes of cells in the blank control group were added respectively with: (1) 200 uL of 1× binding buffer; (2) 200 uL of 1× binding buffer and 5 uL of Annexin V stain; (3) 200 uL of 1× binding buffer and 5 uL of PI stain; (4) 200 uL of 1× binding buffer, 5 uL of Annexin V stain and 5 uL of PI stain. 200 uL of 1× binding buffer, 5 uL of Annexin V stain and 5 uL of PI stain were added to each tube of both the NC group and the experimental group. The mixture was mixed well and filtered through 300 mesh filters. The live cell population and the position of quadrant gate were selected according to the blank control group, and then the apoptosis of the NC group and the experimental group was detected. […]

H460 cells [2] = test: Cell migration (scratch assay, Transwell); assay type: cell-based, human; details: 100 nmol/L, 48 h
Description: Method 1: H460 cells with a cell density of more than 90% in 10 cm^2 dishes were plated in 12-well plates using serum-free medium according to the cell growth rate. After 12 h, 200 uL pipette tips were used to draw straight lines in the wells. The floating cells were washed away and transfection was performed, and the groups (three wells per group, two lines per well) were divided as follows: • blank control group: 200 uL of opti-MEM per well • negative control group (NC group) and experimental group: • A. 100 uL of opti-MEM and 2 uL of iMax were mixed well for 5 min • B. 100 uL of opti-MEM and 5 uL of small RNA (final concentration 100 nmol/L) were mixed well • C. solution A and solution B were mixed well and let stand for 15 min, and then was added to each well at a 200 uL system • Note: 100 uL of nuclease-free water was added to 2 nmol of small RNA dry powder for dissolution at a storage concentration of 20 umol/L
After 48 h, the supernatant was discarded and images were taken under a microscope.
Method 2: H460 cells with a cell density of more than 90% in 10 cm^2 dishes were digested and then resuspended with 1 mL of serum-free medium and counted. 100,000 cells (100 uL) were plated in the upper chamber, and complete medium with 10% FBS was added to the lower chamber of each Transwell (migration chamber). […]
(§1) 1) H460 cells with a cell density of more than 90% in 10 cm^2 dishes were digested and then resuspended with 1 mL of serum-free medium and counted. […]
as §1

Substance	apoptosis (H460 cells [1])	cell migration (H460 cells [2])
HQi-sRNA-2: small RNA derived from Scutellaria baicalensis, sequence AUGGUUCGAUUCCGGAGAGGG (listed as RNA, chemistry not given here)	promotes	inhibits
MDM-sRNA-39: small RNA derived from Maytenus hookeri, sequence GGGAUUGUAGUUCAAUUGGUCAGAGCACC (listed as RNA, chemistry not given here)	promotes	inhibits
MDM-sRNA-163: small RNA derived from Maytenus hookeri, sequence UGACUCUAGUCCGACUUUGUGAAAUGACU (listed as RNA, chemistry not given here)	promotes	inhibits

Reference: patent publication US20250302862A1, “SMALL RNA DRUG FOR INHIBITING ACTIVITY OF CANCER CELLS” (Institute of Basic Medical Sciences Chinese Academy of …, priority 2022, published 2025)
